Laboratory results as given in patent US9365534B2, “Arylated camphenes, processes for their preparation and uses thereof” (Yissum Research Development Company of the Hebrew …, priority 2009, dated 2016).

Key:
human CB1 receptor = human CB1 receptor (Homo sapiens (Human), UniProt P21554); experiment: Membrane competition binding assay with [3H]-CP 55,940, CHO-CB1 membranes; conditions: CHO-CB1 cellular membranes, 2.5 nM [3H]-CP 55,940; read-out: Competition Binding Assay CB1 Receptor Ki
Text: The cDNA clones for human HA-tagged CB1 and CB2 receptors were obtained from the Missouri S&T cDNA Resource Center (www.cdna.org) in cloning vector pcDNA3.1+. The vector containing the human CB2 receptor was transfected directly into CHO-KI cells obtained from ATCC. The HA-tagged human CB1 receptor sequence was subcloned into the pef4-V5-HisA vector with Kpn1 and Pme1 restriction enzymes and subsequently transfected into CHO-K1 cells. Cells were clonally isolated by limited dilution and screened by immunocytochemistry for expression of the HA tag.
Cells were maintained in DMEM/F12 media supplemented with 10% fetal bovine serum (FBS), 100 units/ml penicillin and 100 μg/ml streptomycin and 2 mM L-glutamine. Transfected cell lines were maintained with additional 150 ug/ml zeocin for pEF HA-CB1 transfected cells and 500 ug/ml G-418 for pcDNA HA-CB2 transfected cells (all reagents obtained from Invitrogen).
Cells were grown to confluence and harvested in ice cold phosphate buffered saline with 5 mM EDTA. Cells were spun at 200×g for 10 min and frozen at −80° C. until required. Cell pellets were thawed with cold 0.32 M sucrose and homogenised with a glass homogeniser. The homogenate was spun at 1000×g for 10 min at 4° C. and the supernatant spun in a Sorvall ultracentrifuge for 30 min at 100,000×g. The pellet was then washed in ice cold water and re-spun twice more. The final pellet was resuspended in 50 mM Tris pH 7.5, 0.5 mM EDTA. Protein concentration was determined using the Dc protein assay kit (BioRad, Hercules, Calif., USA).
Membranes (5-10 μg) were incubated with radioligand and a range of concentrations of test compounds in binding buffer (50 mM Tris pH 7.4, 5 mM MgCl2, 1 mM EDTA) with 0.5% (w/v) bovine serum albumin (BSA) (ICP Bio, New Zealand), at 30° C. for 60 min. Stock solutions of putative cannabinoid ligands were prepared in dimethyl sulfoxide to a concentration of 10 mM. Six different final concentrations of compounds were used ranging from 50 μM to 0.1 nM. […] Assays were terminated by addition of 2 ml ice cold binding buffer and filtration through GF/C filters (Whatman) pre-soaked in cold binding buffer, followed by two washes in the same buffer.
Radioactivity was determined by incubation of filters with Irgasafe scintillation fluid (PerkinElmer) and scintillation counting in a Wallac Trilux using Microbeta Trilux software. Data was analysed using the Prism 4.02 programme (GraphPad Software, San Deigo, Calif., USA).
All data was analyzed using Prism 4.02. For binding data the Ki was determined from IC50 values derived from competition binding data fitted with one site competition non-linear regression analysis by Prism 4.02 using the Kd values reported above.

closed head injury (CHI) = experiment: Closed head injury (CHI) model, neurological severity score, Sabra mice; type: in vivo; conditions: for most effective dose (recovery, ΔNSS): Sabra mice, i.p. 1 h after CHI, followed 21 days
Protocol: The study was conducted according to the guidelines of the Institutional Animal Care Committee of the Hebrew University. Male Sabra mice weighing 35 to 50 g were used in all experiments. Animals were kept under controlled light conditions with a 12 h/12 h light/dark cycle. Experimental closed head injury (CHI) was induced using a modified weight drop device developed in our laboratory as described previously (Chen et al., 1996). At 1 h after CHI, the functional status of the mice was evaluated according to a set of 10 neurobehavioral tasks, namely the neurological severity score (NSS). This score is based on the ability of the mice to perform 10 different tasks (Beni-Adani et al., 2001) that evaluate their motor ability, balance, and alertness. One point is given for failing to perform a task. […] A score of 10 reflects maximal neurologic impairment, and a decrease of NSS during the recovery period indicates partial recovery of function.
Data was analyzed using the Prism 4.02 programme (GraphPad Software, San Deigo, Calif., USA). The data are expressed as mean±SEM and statistical significance was assessed with one way analysis of variance (ANOVA) followed by a Dunnett's post-hoc analysis for TNF-α levels. Nonparametric NSS values were compared between the two groups at each time point.
In this study four groups of mice were subjected to CHI (n=10/group and control n=9), after which the following agents were administered: • Group 1 (Control): Vehicle only (ethanol:cremophor:saline at ratio of 1:1:18), 1 h after CHI. • Group 2: HU-910, 0.1 mg/kg, dissolved in vehicle (1:1:18 ethanol:cremophor:saline), i.p. 1 h after CHI. • Group 3: HU-910, 1.0 mg/kg, dissolved in vehicle (1:1:18 ethanol:cremophor:saline), i.p. 1 h after CHI. • Group 4: HU-910, 10.0 mg/kg, dissolved in vehicle (1:1:18 ethanol:cremophor:saline), i.p. 1 h after CHI.
In this study four groups of mice were subjected to CHI (n=9/group), after which the following agents were administered: • Group 1 (Control): Vehicle only (ethanol:cremophor:saline at ratio of 1:1:18), 1 h after CHI. • Group 2: HU-910, 10 mg/kg, dissolved in vehicle (1:1:18 ethanol:cremophor:saline), i.p. 1 h after CHI. • Group 3: Specific CB2 antagonist SR144528 (N-[(1S)-endo-1,3,3-trimethylbicyclo[2.2.1]heptan-2-yl]-5-(4-chloro-3-methylphenyl)-1-(4-methylbenzyl)pyrazole-3 carboxamide), (see M. Rinaldi-Carmona, et al. J. Pharmacol. Exp. Ther. 284 (1998) 644-650), 1 mg/kg, i.p. 1 h after CHI. • Group 4: Specific CB2 antagonist (SR144528, N-[(1S)-endo-1,3,3-trimethylbicyclo[2.2.1]heptan-2-yl]-5-(4-chloro-3-methylphenyl)-1-(4-methylbenzy)pyrazole-3 carboxamide), 1 mg/kg, i.p. 1 h after CHI and HU-910 10 mg/kg administered 10 min after administration of antagonist.
In this study four groups of mice were subjected to CHI (n=7-8/group), after which the following agents were administered: • Group 1 (Control): Vehicle only (Dimethyl Sulfoxide (DMSO): Tween 80: Saline at ratio of 1:1:18), i.p. 1 h after CHI. • Group 2: HU-910, 10 mg/kg, dissolved in Vehicle, i.p. 1 h after CHI. • Group 3: Specific CB2 antagonist/inverse agonist AM630 (6-Iodo-2-methyl-1-[2-(4-morpholinyl)ethyl]-1H-indol-3-yl](4-methoxyphenyl)methanone) (Ross et al. 1999)), dissolved in Vehicle, 1 mg/kg, i.p. 1 h after CHI and HU-910, dissolved in Vehicle, 10 mg/kg administered 10 min after administration of antagonist/inverse agonist. • Group 4: Specific CB2 antagonist/inverse agonist AM630 (6-Iodo-2-methyl-1-[2-(4-morpholinyl)ethyl]-1H-indol-3-yl](4-methoxyphenyl)methanone), dissolved in Vehicle, 1 mg/kg, i.p. 1 h after CHI

Chain of human CB1 receptor (P21554 whole entry): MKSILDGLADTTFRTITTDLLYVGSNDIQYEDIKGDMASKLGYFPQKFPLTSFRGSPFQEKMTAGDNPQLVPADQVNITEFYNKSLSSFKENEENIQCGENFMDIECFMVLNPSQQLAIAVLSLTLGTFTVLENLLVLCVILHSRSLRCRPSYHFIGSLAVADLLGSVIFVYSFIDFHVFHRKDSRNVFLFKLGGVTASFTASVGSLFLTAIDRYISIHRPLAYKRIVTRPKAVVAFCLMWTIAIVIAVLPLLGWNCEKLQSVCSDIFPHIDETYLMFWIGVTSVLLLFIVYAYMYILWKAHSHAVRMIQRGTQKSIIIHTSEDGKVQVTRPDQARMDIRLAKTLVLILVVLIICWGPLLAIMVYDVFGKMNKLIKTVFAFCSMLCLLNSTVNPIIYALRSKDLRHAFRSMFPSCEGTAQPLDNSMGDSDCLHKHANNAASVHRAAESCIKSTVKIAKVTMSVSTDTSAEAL

With `CCCCCCC(C)(C)c1cc(OC)c(C2=C[C@H]3CC[C@]2(CO)C3(C)C)c(OC)c1` [HU-910, (1S,4R)-(2-(2,6-dimethoxy-4-(2-methyloctan-2-yl)phenyl)-7,7-dimethylbicyclo[2.2.1]hept-2-en-1-yl)methanol] the Ki (human CB1 receptor) was 1.37 µM, the “beneficial effect on ΔNSS in the presence of AM630” value (closed head injury (CHI); AM630 1 mg/kg i.p. 1 h after CHI, HU-910 10 mg/kg 10 min later, 1 h to 28 days) was “reduced to a similar extent” and the “extent of recovery ΔNSS=NSS(1 h)−NSS(t)” value (closed head injury (CHI); HU-910 10 mg/kg i.p. 1 h after CHI, days 5 and 7 post injury, vs vehicle or 0.1 and 1 mg/kg) was “significant greater recovery”. The “beneficial effect on ΔNSS in the presence of SR144528” value (closed head injury (CHI); SR144528 1 mg/kg i.p. 1 h after CHI, HU-910 10 mg/kg 10 min later) was “reduced to a similar extent” and the “most effective dose (recovery, ΔNSS)” value (closed head injury (CHI)) was 10 mg/kg.

`CCCCCCC(C)(C)c1cc(OC)c(C2=C[C@H]3CC[C@]2(C(=O)O)C3(C)C)c(OC)c1` [HU-914, (1S,4R)-2-(2,6-dimethoxy-4-(2-methyloctan-2-yl)phenyl)-7,7-dimethylbicyclo[2.2.1]hept-2-ene-1-carboxylic acid] was tested, and the Ki (human CB1 receptor) was over 50 µM, the “recovery, Neurological Severity Score (ΔNSS)” value (closed head injury (CHI); HU-914 5 mg/kg i.p. 1 h after CHI, starting at 3 days post injury, vs vehicle or 10 and 20 mg/kg) was “significant greater recovery” and the “recovery ΔNSS in the presence of SR144528” value (closed head injury (CHI); SR144528 1 mg/kg i.p. 1 h after CHI, HU-914 5 mg/kg 10 min later, 24 h to 28 day) was “abolished and reduced to a similar extent as in the control group”. For the same compound, the “most effective dose (recovery, ΔNSS)” value (closed head injury (CHI)) was 5 mg/kg.
